Source: patent US9610322B2, “Macrocyclic insulin-degrading enzyme (IDE) inhibitors and uses thereof” (President and Fellows of Harvard College, priority 2011, dated 2017)
Values belong to the compound of their own block, whether it stands above or below them.

Key:
recombinant human IDE = recombinant human IDE (Homo sapiens (Human), UniProt P14735); test: IDE protease assay, cleavage of fluorophore-quencher substrate peptide; format: biochemical; conditions: for stronger potency of trans-olefin isomer than corresponding cis-olefin isomer: trans vs cis olefin
Chain of recombinant human IDE (P14735 whole entry): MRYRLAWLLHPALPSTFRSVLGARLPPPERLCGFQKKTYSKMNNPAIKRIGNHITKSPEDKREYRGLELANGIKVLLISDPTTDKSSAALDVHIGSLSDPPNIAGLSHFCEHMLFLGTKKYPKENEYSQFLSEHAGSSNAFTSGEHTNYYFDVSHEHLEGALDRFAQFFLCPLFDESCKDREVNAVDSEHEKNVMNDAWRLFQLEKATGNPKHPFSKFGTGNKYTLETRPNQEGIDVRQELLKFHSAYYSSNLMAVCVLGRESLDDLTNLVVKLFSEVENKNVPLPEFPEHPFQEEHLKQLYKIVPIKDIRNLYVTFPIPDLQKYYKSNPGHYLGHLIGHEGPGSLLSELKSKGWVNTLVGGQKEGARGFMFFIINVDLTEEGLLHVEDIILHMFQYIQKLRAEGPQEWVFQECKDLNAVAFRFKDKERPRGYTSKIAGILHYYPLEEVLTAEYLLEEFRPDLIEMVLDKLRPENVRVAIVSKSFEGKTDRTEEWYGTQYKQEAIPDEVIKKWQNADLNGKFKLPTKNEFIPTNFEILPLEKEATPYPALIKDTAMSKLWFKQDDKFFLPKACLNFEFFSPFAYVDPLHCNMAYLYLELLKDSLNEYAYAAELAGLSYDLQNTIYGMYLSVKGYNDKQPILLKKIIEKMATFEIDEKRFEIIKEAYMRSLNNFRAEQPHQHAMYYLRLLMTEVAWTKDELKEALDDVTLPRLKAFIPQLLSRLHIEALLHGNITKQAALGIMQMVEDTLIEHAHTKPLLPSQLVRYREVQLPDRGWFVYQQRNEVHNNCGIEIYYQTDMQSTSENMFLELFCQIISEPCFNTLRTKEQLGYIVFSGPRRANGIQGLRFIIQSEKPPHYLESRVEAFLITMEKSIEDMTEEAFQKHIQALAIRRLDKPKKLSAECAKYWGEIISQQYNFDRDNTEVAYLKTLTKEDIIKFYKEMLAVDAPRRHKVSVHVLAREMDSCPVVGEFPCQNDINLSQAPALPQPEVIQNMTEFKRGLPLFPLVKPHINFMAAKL
Method: In vitro protease assays: Protease assays with IDE and neprilysin were performed using Mca-RPPGFSAFK(Dnp)-OH substrate peptide (R&D Systems, SEQ ID NO: 6) and purified recombinant human IDE and recombinant human neprilysin (R&D Systems) according to the manufacturer's instructions. For IDE, 2 μL of small molecule dissolved in DMSO was combined with 48 μL, 0.2 μg/mL IDE in IDE assay buffer (50 mM Tris, 1 M NaCl, pH 7.5). 50 μL, of 20 μM substrate peptide in IDE assay buffer was then added to initiate the reaction, and peptide cleavage was monitored on a fluorescent plate reader (excitation=320 nm; emission=405 nm) for 5 minutes. The above protocol was also used for assaying neprilysin activity, substituting the neprilysin assay buffer (50 mM Tris, 0.05% Brij-35, pH 9.0).
Compounds were synthesized as described previously;^9 in most cases the macrocycle synthesis yielded two isomers corresponding to the cis and trans olefins generated after macrocyclization. Macrocycles were assayed for IDE inhibition by monitoring cleavage of a substrate peptide^13 containing a fluorophore-quencher pair such that cleavage of the model substrate results in increased fluorescence.

[1] = Biodistribution assay after IP injection, LC-MS of organ extracts; format: in vivo, mouse; conditions: mice, intraperitoneal injection, 45 minutes
Method: Macrocycles were diluted to 0.1 mg/mL or 1 mg/mL in PBS and IP-injected into a mouse to produce a concentration of 1 mg/kg or 10 mg/kg, respectively. After 45 minutes, organs were harvested, and the small-molecule fractions were extracted into a 2:1:1 mixture of chloroform:methanol:water. Samples were evaporated under a stream of nitrogen, resuspended in 100 μL of chloroform and subjected to LC-MS analysis.
The tissue distribution of enriched macrocycles after i.p. injection was examined. […] Briefly, compounds were injected at different concentrations intraperitoneally into mice, and plasma, brain, and pancreas were harvested after 45 minutes. Vehicle-only injections were performed as negative controls. We determined the relative amount of macrocycle present by extracting the organs with organic solvents and quantifying the amount of compound present by LC-MS analysis.

plasma IDE activity = test: Plasma IDE activity in mice injected with inhibitor; format: in vivo
Method: Finally, we compared plasma IDE activity in mice injected with 6b with plasma IDE activity in control mice injected with vehicle alone (18:1:1, saline:DMSO:Tween-80). Plasma IDE activity 60 min after 10 mg/kg, 20 mg/kg, or 40 mg/kg i.p. injection of 6b was inhibited by ≧90% (FIG. 9).

[2] = Preliminary pharmacokinetics after i.p. injection, LC-MS quantitation; conditions: mice
[3] = previous indications; cited from earlier work

SMILES: NC(=O)CCC1NC(=O)C=CC(=O)NC(C(N)=O)CCCCNC(=O)C(Cc2ccc(C(=O)c3ccccc3)cc2)NC(=O)C(CC2CCCCC2)NC1=O (mixture of isomers) [Compound 6]
stronger potency of trans-olefin isomer than corresponding cis-olefin isomer (recombinant human IDE): > 10 fold

SMILES: NC(=O)CCC1NC(=O)C=CC(=O)NC(C(N)=O)CCCCNC(=O)C(Cc2ccc(C(=O)c3ccccc3)cc2)NC(=O)C(CC2CCCCC2)NC1=O (stereo not shown) [Compound 6b]
detection in brain [1]: none of the three compounds could be detected in the brain
detection in pancreas [1]: could be detected
detection in plasma [1]: could be detected
macrocycle concentrations in the plasma compared among compounds [1]: comparable
inhibition of plasma IDE activity (plasma IDE activity; 60 min after 10 mg/kg i.p.): ≥ 90%
inhibition of plasma IDE activity (plasma IDE activity; 60 min after 20 mg/kg i.p.): ≥ 90%
inhibition of plasma IDE activity (plasma IDE activity; 60 min after 40 mg/kg i.p.): ≥ 90%
peak blood concentration ([2]; i.p. 20 mg/kg): 0.2 µM
time of peak blood concentration ([2]; i.p. 20 mg/kg): 60 min
tolerability of injections ([2]; i.p. 20 mg/kg in 18:1:1 saline:DMSO:Tween-80): well tolerated

SMILES: N=C(N)NCCC[C@H](NC(=O)[C@@H](CC(=O)NO)Cc1ccc2ccccc2c1)C(=O)N[C@@H](Cc1c[nH]c2ccccc12)C(=O)N[C@@H](CCC(=O)O)C(N)=O [Ii1]
stability under physiological conditions [3]: not sufficiently stable under physiological conditions

Next, values leading:

stronger potency of trans-olefin isomer than corresponding cis-olefin isomer (recombinant human IDE): > 10 fold
SMILES: NC(=O)C1CCCCNC(=O)C(Cc2ccc(C(=O)c3ccccc3)cc2)NC(=O)C(CC2CCCCC2)NC(=O)CC(O)C(CC2CCCCC2)NC(=O)C=CC(=O)N1 (mixture of isomers) [Compound 3]

stronger potency of trans-olefin isomer than corresponding cis-olefin isomer (recombinant human IDE): > 10 fold
SMILES: NC(=O)C1CCCCNC(=O)C(Cc2ccc(C(=O)c3ccccc3)cc2)NC(=O)C(CC2CCCCC2)NC(=O)C(CC2CC2)NC(=O)C=CC(=O)N1 (mixture of isomers) [Compound 5]

activity against IDE in words (recombinant human IDE): inactive
SMILES: NC(=O)CCC1NC(=O)C=CC(=O)NC(C(N)=O)CCCCNC(=O)CNC(=O)C(CC2CCCCC2)NC1=O (stereo not shown) [Compound 1]

effect of modification on IDE inhibitor potency relative to 6b, in words (recombinant human IDE; derivatives of 6b): equipotent
SMILES: NCCCC[C@@H]1NC(=O)/C=C/C(=O)NC(C(N)=O)CCCCNC(=O)[C@@H](Cc2ccc(C(=O)c3ccccc3)cc2)NC(=O)[C@H](CC2CCCCC2)NC1=O (stereo partly shown) [Compound 20]
